“Also recorded” adds a separate entry of the source.

This is an account of results in US20110230477A1, “COMPOUNDS, PHARMACEUTICAL COMPOSITION AND METHODS FOR USE IN TREATING METABOLIC DISORDERS” (Euroscreen S.A., priority 2008, published 2011).

The test system of assay [1] is adipocytes isolated from normal rats. Put plainly: Lipolysis assay in isolated adipocytes (normal rats). In kind it is cell-based. The conditions noted are these: adipocytes isolated from normal rats (FIGS. 6 and 7). The method, then: Isolated adipocytes were diluted to 5% in KRH-buffer and were pre-treated with compound of the invention (30 μM, 10 μM and 1 μM) for 30 min at 37° C./120 rpm. After the pre-treatment, Isoprenaline (1 μM) was added to the adipocytes followed by 30 min incubation at 37° C./150 rpm. The reactions were put on ice and the buffer was assayed spectrophotometrically for the production of […] from glycerol breakdown in reactions catalyzed by glycerol kinase and glycerol-3-phosphate dehydrogenase and/or Non Esterified Fatty Acid (NEFA). Each data point was investigated in triplicates in two independent experiments.

Assay [2] deals with T1, human GPR43 receptor (hGPR43) (Homo sapiens, UniProt O15552).
T1 construct: expressed in transfected cells
T1 sequence (O15552 1-330): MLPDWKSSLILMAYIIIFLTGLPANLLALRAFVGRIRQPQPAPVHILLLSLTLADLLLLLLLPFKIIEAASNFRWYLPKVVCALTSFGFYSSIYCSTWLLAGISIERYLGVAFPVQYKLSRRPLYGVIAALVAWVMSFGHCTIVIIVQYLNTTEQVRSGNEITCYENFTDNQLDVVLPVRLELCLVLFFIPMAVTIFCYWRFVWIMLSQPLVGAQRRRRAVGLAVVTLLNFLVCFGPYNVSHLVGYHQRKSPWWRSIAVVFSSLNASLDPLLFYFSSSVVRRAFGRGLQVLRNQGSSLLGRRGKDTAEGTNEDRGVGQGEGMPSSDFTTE
Put plainly: GTPγS binding assay (SPA method). It is filed as biochemical. The conditions noted are these: membranes expressing hGPR43; assay performed in the presence of SCFA; read-out: EC50 (nM) in GTPγ35S assay. The gist of the method:
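Membranes (5 μg) from hGPR43-expressing cells were incubated 30 min at room temperature with [35S]GTPγS, compounds (30 μM to 1 nM) and WGA SPA beads. Buffer was 20 mM HEPES pH 7.4, 100 mM NaCl, 10 μg/ml saponin, 30 mM MgCl2 and 10 μM GDP, with SCFA present. Bound label was read by scintillation counting.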

The test system of the next assay is normal diet fed mice. As to the kind of experiment: In vivo assay of anti-lipolytic activity in rodent model (plasma FFA). The conditions noted are these: orally administered, 50mg/kg, 15 minutes following the dosing, vs vehicle (FIG. 8). The method, then: Male C57BL/6N wild-type are housed one per cage in a room maintained on a 12 h light/dark cycle under constant temperature (22-25° C.) with ad libitum access to food and water. The anti-lipolytic effects of the compounds of the invention are studied in awake mice. Animals are fasted overnight before experimental use. On the day of the experiment, animals are put in metabolic cages and left undisturbed to acclimate to the environment for 1-2 h. blood samples are taken at indicated time points from the intraorbital retrobulbar plexus. A 1% sodium citrate saline solution is used to flush the lines. A pre-treatment blood sample is obtained from each animal to determine baseline values for free fatty acids (FFA) and triglycerides (TG). Compounds of the invention are given via oral gavage, sc injection, iv injection or ip injection for each different series of experiments. Blood samples are collected into pre-cooled tubes pre-coated with heparin (200 μl blood, Li-heparin, Sarstedt) for determination triglycerides and glycerol and in tri-potassium EDTA added sodium fluoride (200 μl blood, K3-EDTA, 1.6 mg/mL+1% NaF, Sarstedt) for determination of plasma free fatty acids. The tubes are placed on wet ice pending processing. Blood samples will be centrifuged at 4000×g, at 4° C., 15 min the resulting plasma will be transferred into non-coated tubes and stored at −80° C. until analyses. […]

Another assay deals with NCI-H716 cells. Put plainly: GLP-1 release from NCI-H716 cells. The conditions noted are these: NCI-H716 cells (FIG. 9). In kind it is cell-based, Human. The method, then:
Human intestinal cell line NCI-H716 has been described as cellular model to assess compounds mimicking nutrient-mediated effect such as glucagon-like peptide-1 (GLP-1) secretion.
NCl-H716 cells (ATCC, Manassas) are cultured in Dulbecco's modified eagle's medium (DMEM) containing 10% (v/v) bovine serum, 2 mM L-glutamine, 100 IU/ml penicillin and 100 μg/ml streptomycin in 75 ml flask. Cell adhesion and endocrine differentiation is initiated by growing cells in 96-well plate coated with matrigel in High Glucose DMEM containing 10% (v/v) bovine serum, 2 mM L-glutamine, 100 IU/ml penicillin and 100 μg/ml streptomycin for 2 days. On day 2, the medium is removed and cells are washed once with a pre-warmed wash buffer (Phosphate Buffered salt solution). The wash solution is removed and the SCFA or the compounds of the invention, or a combination of both, are added at the desired concentration in High Glucose DMEM containing 0.1% (v/v) bovine serum and incubated for 2 hours at 37° C. The supernatants are collected in a container. Using the cell-free supernatants, the GLP-1 amount is assessed using a GLP-1 specific ELISA assay kit according the manufacturer's recommendations (ALPCON).

Broadly, the EC50 is the concentration that produces a half-maximal response. Consider “(3R)-4-((4-(2-chlorophenyl)thiazol-2-yl)(methyl)amino)-4-oxo-3-((tetrahydrofuran-2-yl)methyl)butanoic acid [Compound 155]”, for which the isoprenaline-induced lipolysis result in assay [1] was “inhibit”. Besides, the EC50 in assay [2] came out at 94 nM.
For `COc1ccc(-c2ccccc2-c2csc(N(C)C(=O)[C@@H](CC(=O)O)CC3CCCC3)n2)cn1` [Compound 139, (R)-3-(cyclopentylmethyl)-4-((4-(2-(6-methoxypyridin-3-yl)phenyl)thiazol-2-yl)(methyl)amino)-4-oxobutanoic acid], the isoprenaline-induced lipolysis entry in assay [1] is listed as “inhibit”. In addition, the EC50 in assay [2] was determined as 38 nM.
Take `COc1ccc(-c2ccccc2-c2csc(N(C(=O)[C@@H](CC(=O)O)CC3CCCC3)C3CC3)n2)cn1` [Compound 169, (R)-3-(cyclopentylmethyl)-4-(cyclopropyl(4-(2-(6-methoxypyridin-3-yl)phenyl)thiazol-2-yl)amino)-4-oxobutanoic acid]: the isoprenaline-induced lipolysis entry in assay [1] is reported as “inhibit”. The “in vivo FFA baseline” value in the assay with normal diet fed mice is “inhibition; also recorded: inhibit”. Moreover, the GLP-1 secretion entry in the assay with NCI-H716 cells was “significantly increases”.
For the molecule `CN(C(=O)[C@@H](CC(=O)O)Cc1ccccc1)c1nc(-c2ccccc2-c2ccccc2)cs1` [Compound 111, (R)-4-((4-([1,1′-biphenyl]-2-yl)thiazol-2-yl)(methyl)amino)-3-benzyl-4-oxobutanoic acid], the EC50 in assay [2] was 393 nM.
For `Cc1sc(NC(=O)[C@@H](CC(=O)O)Cc2ccccc2)c(C(N)=O)c1-c1ccc(Cl)cc1Cl` [Compound 207, (3R)-3-benzyl-4-((3-carbamoyl-4-(2,4-dichlorophenyl)-5-methylthiophen-2-yl)amino)-4-oxobutanoic acid], the EC50 in assay [2] was determined as 2910 nM.
On the same count and under the same terms, the result for `O=C(O)C[C@@H](Cc1ccccc1)C(=O)Nc1nc(-c2ccc(Cl)cc2Cl)cs1` [Compound 3, (R)-3-benzyl-4-(4-(2,4-dichlorophenyl)thiazol-2-ylamino)-4-oxobutanoic acid] reads 653 nM; that for `Cc1ccc(-c2csc(NC(=O)[C@@H](CC(=O)O)Cc3ccccc3)n2)o1` [Compound 202, (R)-3-benzyl-4-((4-(5-methylfuran-2-yl)thiazol-2-yl)amino)-4-oxobutanoic acid], 1510 nM.
As for `CN(C(=O)[C@@H](CC(=O)O)Cc1ccccc1)c1nc(-c2ccccc2-c2ccc(N3CCOCC3)cc2)cs1` [Compound 132, (R)-4-(2′-(2-(2-benzyl-3-carboxy-N-methylpropanamido)thiazol-4-yl)-[1,1′-biphenyl]-4-yl)morpholin-4-ium 2,2,2-trifluoroacetate], the EC50 in assay [2] stood at 276 nM.
With `Cc1cc(-c2csc(NC(=O)[C@@H](CC(=O)O)Cc3ccccc3)n2)c(C)s1` [Compound 102, (R)-3-benzyl-4-(4-(2,5-dimethylthiophen-3-yl)thiazol-2-ylamino)-4-oxobutanoic acid], the EC50 in assay [2] was 442 nM.
The same measure, in the same setting: in the case of `COc1ccc(-c2ccccc2-c2csc(N(C)C(=O)[C@@H](CC(=O)O)CC3CCOCC3)n2)cn1` [Compound 160, (R)-4-((4-(2-(6-methoxypyridin-3-yl)phenyl)thiazol-2-yl)(methyl)amino)-4-oxo-3-((tetrahydro-2H-pyran-4-yl)methyl)butanoic acid] it was 244 nM.
Take `CN(C(=O)[C@@H](CC(=O)O)Cc1ccccc1)c1nc(-c2ccccc2C2CC2)cs1` [Compound 144, (R)-3-benzyl-4-((4-(2-cyclopropylphenyl)thiazol-2-yl)(methyl)amino)-4-oxobutanoic acid]: the EC50 in assay [2] came out at 897 nM.
For `Cc1cc(CC(CC(=O)O)C(=O)N(C)c2nc(-c3ccccc3Cl)cs2)no1` (stereo not drawn) [Compound 210, 4-((4-(2-chlorophenyl)thiazol-2-yl)(methyl)amino)-3-((5-methylisoxazol-3-yl)methyl)-4-oxobutanoic acid], the EC50 in assay [2] worked out at 2680 nM.
On to `O=C(O)C[C@H](C(=O)Nc1nc(-c2ccccc2Cl)cs1)c1ccccc1` [Compound 9, (S)-4-(4-(2-chlorophenyl)thiazol-2-ylamino)-4-oxo-3-phenylbutanoic acid], for which the EC50 in assay [2] came to 60 nM.
Consider `O=C(O)C[C@@H](CC1CCCC1)C(=O)N(c1nc(-c2ccccc2-c2ccc(N3CCCC3=O)nc2)cs1)C1CC1` [Compound 183, (R)-3-(cyclopentylmethyl)-4-(cyclopropyl(4-(2-(6-(2-oxopyrrolidin-1-yl)pyridin-3-yl)phenyl)thiazol-2-yl)amino)-4-oxobutanoic acid], for which the isoprenaline-induced lipolysis result in assay [1] is “inhibit”. Also, in assay [2], the EC50 was 57 nM. In the assay on normal diet fed mice, the “in vivo FFA baseline” value is “inhibition; also recorded: inhibit”.
Consider `C[C@H](c1ccccc1)[C@@H](CC(=O)O)C(=O)N(C)c1nc(-c2ccccc2Cl)cs1` [Compound 195, (3R,4S)-3-((4-(2-chlorophenyl)thiazol-2-yl)(methyl)carbamoyl)-4-phenylpentanoic acid], for which, in assay [2], the EC50 is 2170 nM.
